The source of these data is ChEMBL document CHEMBL3045679, “Microwave-assisted synthesis and pharmacological studies of novel 5-deazaalloxazine derivatives” (2012).

Molecules are shown by their SMILES. ≈ marks a conversion by molar mass, not a printed value. Calls of active or inactive are those of the source. The rule behind the calls is not given here.

Experiment [1] has as its system Rhodotorula mucilaginosa. Put plainly: Antifungal activity against Rhodotorula mucilaginosa NCIM 3174 at 500 ug/disk after 72 hr by disk diffusion method. The class given is functional. Particulars: NCIM 3174, 72 h, read-out: DIZ. (In general: A growth-free zone around the sample is the usual read-out of agar diffusion tests.)
Experiment [2] deals with Aspergillus niger. Nature of the experiment: Antifungal activity against Aspergillus niger NCIM 1196 at 1000 ug/disk after 72 hr by disk diffusion method. The format is functional. Particulars: NCIM 1196, 72 h, read-out: DIZ.
The subject of experiment [3] is Penicillium chrysogenum. Put plainly: Antifungal activity against Penicillium chrysogenum NCIM 707 at 1000 ug/disk after 72 hr by disk diffusion method. The format is functional. Particulars: NCIM 707, 72 h, read-out: DIZ.
For experiment [4], the system named is Bacillus subtilis. Put plainly: Antibacterial activity against Bacillus subtilis NCIM 2063 at 500 ug/disk after 24 hr by disk diffusion method. The format is functional. Conditions: NCIM 2063, 24 h, read-out: DIZ.
Experiment [5] relates to Aspergillus flavus. Put plainly: Antifungal activity against Aspergillus flavus NCIM 535 at 500 ug/disk after 72 hr by disk diffusion method. Particulars: NCIM 535, 72 h, read-out: DIZ. The class given is functional.
Experiment [6] relates to Pseudomonas aeruginosa. Nature of the experiment: Antibacterial activity against Pseudomonas aeruginosa NCIM 2200 after 24 hr by broth dilution assay. The class given is functional. Conditions: NCIM 2200, 24 h. On the technique in general: In broth dilution the organism is exposed to a series of concentrations in liquid medium.
The subject of experiment [7] is Klebsiella aerogenes. Nature of the experiment: Antibacterial activity against Enterobacter aerogenes NCIM 2239 after 24 hr by broth dilution assay. Conditions: NCIM 2239, 24 h. The format is functional.
The test system of experiment [8] is Bacillus subtilis. Nature of the experiment: Antibacterial activity against Bacillus subtilis NCIM 2063 at 1000 ug/disk after 24 hr by disk diffusion method. The class given is functional. Particulars: NCIM 2063, 24 h, read-out: DIZ.
The test system of experiment [9] is Klebsiella aerogenes. Nature of the experiment: Antibacterial activity against Enterobacter aerogenes NCIM 2239 at 1000 ug/disk after 24 hr by disk diffusion method. Particulars: NCIM 2239, 24 h, read-out: DIZ. The format is functional.
The test system of experiment [10] is Escherichia coli. Nature of the experiment: Antibacterial activity against Escherichia coli NCIM 2065 at 500 ug/disk after 24 hr by disk diffusion method. The format is functional.
Experiment [11] has as its system Streptomyces albus. Put plainly: Antibacterial activity against Streptomyces albus NCIM 2178 after 24 hr by broth dilution assay. The class given is functional. Particulars: NCIM 2178, 24 h.
Experiment [12] deals with Candida albicans. Put plainly: Antifungal activity against Candida albicans NCIM 3471 at 500 ug/disk after 72 hr by disk diffusion method. The format is functional. Conditions: NCIM 3471, 72 h, read-out: DIZ.
Experiment [13] has as its system Bacillus cereus. Put plainly: Antibacterial activity against Bacillus cereus NCIM 2155 at 500 ug/disk after 24 hr by disk diffusion method. The format is functional. Particulars: NCIM 2155, 24 h, read-out: DIZ.
In experiment [14] the test system is Rhodotorula mucilaginosa. Nature of the experiment: Antifungal activity against Rhodotorula mucilaginosa NCIM 3174 at 1000 ug/disk after 72 hr by disk diffusion method. The format is functional. Conditions: NCIM 3174, 72 h, read-out: DIZ.
Experiment [15] concerns Aspergillus niger. Put plainly: Antifungal activity against Aspergillus niger NCIM 1196 at 500 ug/disk after 72 hr by disk diffusion method. The class given is functional.
For experiment [16], the system named is Aspergillus flavus. Nature of the experiment: Antifungal activity against Aspergillus flavus NCIM 535 at 1000 ug/disk after 72 hr by disk diffusion method. The format is functional. Conditions: NCIM 535, 72 h, read-out: DIZ.
For experiment [17], the system named is Penicillium chrysogenum. Put plainly: Antifungal activity against Penicillium chrysogenum NCIM 707 after 72 hr by broth dilution assay. The format is functional. Conditions: NCIM 707, 72 h.
For experiment [18], the system named is Lipomyces lipofer. Put plainly: Antifungal activity against Lipomyces lipofer NCIM 3252 after 72 hr by broth dilution assay. The format is functional. Conditions: NCIM 3252, 72 h.
Experiment [19] has as its system Pseudomonas aeruginosa. Nature of the experiment: Antibacterial activity against Pseudomonas aeruginosa NCIM 2200 at 500 ug/disk after 24 hr by disk diffusion method. The format is functional. Particulars: NCIM 2200, 24 h, read-out: DIZ.
Experiment [20] deals with Candida albicans. Nature of the experiment: Antifungal activity against Candida albicans NCIM 3471 at 1000 ug/disk after 72 hr by disk diffusion method. The class given is functional. Conditions: NCIM 3471, 72 h, read-out: DIZ.
In experiment [21] the test system is Streptomyces albus. Put plainly: Antibacterial activity against Streptomyces albus NCIM 2178 at 500 ug/disk after 24 hr by disk diffusion method. The class given is functional, organism-based.
Experiment [22] has as its system Aspergillus niger. Put plainly: Antifungal activity against Aspergillus niger NCIM 1196 after 72 hr by broth dilution assay. The class given is functional. Particulars: NCIM 1196, 72 h.
The test system of experiment [23] is Penicillium chrysogenum. Put plainly: Antifungal activity against Penicillium chrysogenum NCIM 707 at 500 ug/disk after 72 hr by disk diffusion method. The class given is functional. Particulars: NCIM 707, 72 h, read-out: DIZ.
In experiment [24] the test system is Escherichia coli. Put plainly: Antibacterial activity against Escherichia coli NCIM 2065 after 24 hr by broth dilution assay. The format is functional. Conditions: NCIM 2065, 24 h.
For experiment [25], the system named is Bacillus cereus. Put plainly: Antibacterial activity against Bacillus cereus NCIM 2155 after 24 hr by broth dilution assay. The class given is functional. Particulars: NCIM 2155, 24 h.
For experiment [26], the system named is Rhodotorula mucilaginosa. Put plainly: Antifungal activity against Rhodotorula mucilaginosa NCIM 3174 after 72 hr by broth dilution assay. The format is functional. Particulars: NCIM 3174, 72 h.
Experiment [27] deals with Klebsiella aerogenes. Put plainly: Antibacterial activity against Enterobacter aerogenes NCIM 2239 at 500 ug/disk after 24 hr by disk diffusion method. The format is functional. Conditions: NCIM 2239, 24 h, read-out: DIZ.
Experiment [28] deals with Bacillus cereus. Put plainly: Antibacterial activity against Bacillus cereus NCIM 2155 at 1000 ug/disk after 24 hr by disk diffusion method. Particulars: NCIM 2155, 24 h, read-out: DIZ. The class given is functional.
Experiment [29] concerns Candida albicans. Put plainly: Antifungal activity against Candida albicans NCIM 3471 after 72 hr by broth dilution assay. The class given is functional. Conditions: NCIM 3471, 72 h.
Experiment [30] has as its system Lipomyces lipofer. Put plainly: Antifungal activity against Lipomyces lipofer NCIM 3252 at 500 ug/disk after 72 hr by disk diffusion method. Particulars: NCIM 3252, 72 h, read-out: DIZ. The format is functional.
The subject of experiment [31] is Bacillus subtilis. Put plainly: Antibacterial activity against Bacillus subtilis NCIM 2063 after 24 hr by broth dilution assay. Conditions: NCIM 2063, 24 h. The class given is functional.
In experiment [32] the test system is Aspergillus flavus. Nature of the experiment: Antifungal activity against Aspergillus flavus NCIM 535 after 72 hr by broth dilution assay. The class given is functional. Conditions: NCIM 535, 72 h.
Experiment [33] relates to Lipomyces lipofer. Nature of the experiment: Antifungal activity against Lipomyces lipofer NCIM 3252 at 1000 ug/disk after 72 hr by disk diffusion method. The class given is functional. Conditions: NCIM 3252, 72 h, read-out: DIZ.
Experiment [34] has as its system Escherichia coli. Put plainly: Antibacterial activity against Escherichia coli NCIM 2065 at 1000 ug/disk after 24 hr by disk diffusion method. Conditions: NCIM 2065, 24 h, read-out: DIZ. The format is functional.
Experiment [35] concerns Pseudomonas aeruginosa. Nature of the experiment: Antibacterial activity against Pseudomonas aeruginosa NCIM 2200 at 1000 ug/disk after 24 hr by disk diffusion method. Particulars: NCIM 2200, 24 h, read-out: DIZ. The format is functional.
For experiment [36], the system named is Streptomyces albus. Put plainly: Antibacterial activity against Streptomyces albus NCIM 2178 at 1000 ug/disk after 24 hr by disk diffusion method. The class given is functional. Particulars: NCIM 2178, 24 h, read-out: DIZ.
The subject of experiment [37] is Klebsiella aerogenes. Nature of the experiment: Antibacterial activity against Enterobacter aerogenes NCIM 2239 at 5 ug/disk after 24 hr by disk diffusion method. The class given is functional. Conditions: NCIM 2239, 24 h, read-out: DIZ.
In experiment [38] the test system is Streptomyces albus. Nature of the experiment: Antibacterial activity against Streptomyces albus NCIM 2178 at 5 ug/disk after 24 hr by disk diffusion method. The class given is functional. Conditions: NCIM 2178, 24 h, read-out: DIZ.
The test system of experiment [39] is Bacillus cereus. Put plainly: Antibacterial activity against Bacillus cereus NCIM 2155 at 5 ug/disk after 24 hr by disk diffusion method. Particulars: NCIM 2155, 24 h, read-out: DIZ. The format is functional.
For experiment [40], the system named is Pseudomonas aeruginosa. Put plainly: Antibacterial activity against Pseudomonas aeruginosa NCIM 2200 at 5 ug/disk after 24 hr by disk diffusion method. The class given is functional. Conditions: NCIM 2200, 24 h, read-out: DIZ.
For experiment [41], the system named is Escherichia coli. Put plainly: Antibacterial activity against Escherichia coli NCIM 2065 at 5 ug/disk after 24 hr by disk diffusion method. The class given is functional. Conditions: NCIM 2065, 24 h, read-out: DIZ.
Experiment [42] has as its system Bacillus subtilis. Nature of the experiment: Antibacterial activity against Bacillus subtilis NCIM 2063 at 5 ug/disk after 24 hr by disk diffusion method. The class given is functional. Conditions: NCIM 2063, 24 h, read-out: DIZ.

Usually MIC stands for the lowest concentration that inhibits growth of the organism. Read a high MIC as a less susceptible organism. Regarding `Cc1ccc2nc3[nH]c(=O)[nH]c(=O)c3cc2c1`, the zone of inhibition at 500 µg/disc with Rhodotorula mucilaginosa [1] was found to be 9 mm; in the experiment with Bacillus subtilis [4] it was 9 mm; in the experiment with Aspergillus flavus [5], 9 mm; in the experiment with Candida albicans [12] it was 8 mm; with Bacillus cereus [13] it was 11 mm; in the experiment on Pseudomonas aeruginosa [19], 16 mm. Besides, the results for the zone of inhibition at 500 µg/disc in the experiment with Penicillium chrysogenum [23], with Klebsiella aerogenes [27] and with Lipomyces lipofer [30] were 10 mm, 10 mm and 11 mm, respectively. The zone of inhibition at 1000 µg/disc with Aspergillus niger [2] is 11 mm; in the experiment on Penicillium chrysogenum [3] it was 11 mm; with Bacillus subtilis [8], 11 mm; in the experiment with Klebsiella aerogenes [9] it was 11 mm; in the experiment with Rhodotorula mucilaginosa [14] it was 13 mm; in the experiment with Aspergillus flavus [16], 10 mm. Moreover, the zone of inhibition at 1000 µg/disc in the experiment on Candida albicans [20] came out at 10 mm; with Bacillus cereus [28], 13 mm; with Lipomyces lipofer [33] it was 13 mm; with Escherichia coli [34], 12 mm; in the experiment with Pseudomonas aeruginosa [35], 17 mm; with Streptomyces albus [36], 9 mm. Moreover, the minimal inhibitory concentration (MIC) against Pseudomonas aeruginosa [6] was 3.9 µg/mL (≈ 17.2 µM); against Klebsiella aerogenes [7] it was 7.8 µg/mL (≈ 34.3 µM); against Streptomyces albus [11], 62.5 µg/mL (≈ 275 µM); in the experiment on Penicillium chrysogenum [17], 15.6 µg/mL (≈ 68.7 µM); with Lipomyces lipofer [18], 15.6 µg/mL (≈ 68.7 µM); in the experiment on Aspergillus niger [22] it was 31.2 µg/mL (≈ 137 µM). The MIC with Escherichia coli [24] was 7.8 µg/mL (≈ 34.3 µM); with Bacillus cereus [25], 7.8 µg/mL (≈ 34.3 µM); with Rhodotorula mucilaginosa [26], 7.8 µg/mL (≈ 34.3 µM); with Candida albicans [29] it was 15.6 µg/mL (≈ 68.7 µM); against Bacillus subtilis [31] it was 15.6 µg/mL (≈ 68.7 µM); in the experiment on Aspergillus flavus [32], 7.8 µg/mL (≈ 34.3 µM). Moreover, the “diameter of the inhibition zone (DIZ)” value in the experiment with Escherichia coli [10], in the experiment with Aspergillus niger [15] and in the experiment with Streptomyces albus [21] was “inactive” throughout.
For the compound `CC1COc2c(N3CCN(C)CC3)c(F)cc3c(=O)c(C(=O)O)cn1c23` (configuration not stated) [OFLOXACIN], the zone of inhibition at 5 µg/disc was 21 mm in the experiment on Klebsiella aerogenes [37]; 21 mm in the experiment on Streptomyces albus [38]; 19 mm in the experiment with Bacillus cereus [39]; 22 mm in the experiment with Pseudomonas aeruginosa [40]; 23 mm in the experiment on Escherichia coli [41]; 22 mm in the experiment with Bacillus subtilis [42].
